# From patent US20220288075A1, “METHOD AND COMPOSITION FOR TREATING PAIN” (ACADEMIA SINICA, priority 2019, published 2022)
# Legend:
# [1] = tested on: RISS mice; experiment: RISS (repeated and intermittent sound stress) model, sensory testing (von Frey, muscle withdrawal threshold, Hargreaves); assay type: in vivo; conditions: i.p. injection, post-RISS day 1 and 4; FIG. 1G
# Text: Sound stressors were applied as described^14, 43 with modification. Mice were placed (3 per cage) in a 20×30×15 cm bedding cage, which was kept 25 cm below a speaker, inside a 40×50×35 cm sound-insulated box. A speaker emitted pure tones at 5 frequencies (5, 11, 13, 15 and 19 kHz) with random amplitudes varied over time for each frequency (0, 20, 60, 90, and 100 dB sound). Each tone stimulus lasted for 5 or 10 sec in random order, and mice were stimulated continuously without interval. The sound stressors continued for 30 min as a set. In the original SS (sound stress) protocol, a set of 30-min stimuli was given once a day on days 1, 3, and 4 (FIG. 1A)^14. The RISS model intensified the stress protocol by increasing the stimulus frequency: a set of sound stimulus was repeated every 3 hours for 6 times overnight (from 16:00 to 10:00), followed by resting silence for 6 hours (from 10:00 to 16:00). The procedure was repeated on days 1, 3, and 4 as for the SS protocol. The control groups were placed in similar chambers for 4 days without stress exposure. Both groups of mice had access to food and water freely during the stress period. After the stimulus procedure, mice were returned to their original home cages in the animal care facility. In both the SS and RISS protocols, the day after completing the stress stimuli is called P0; the post-stress day 1, P1; and so on. In the experimental design of the […] single-day stimuli of intermittent SS (SISS), the day after SISS is called P′0; the post-stress day 1, P′1; and so on.
# (§1) Animals were placed on an elevated mesh platform, and a 0.2-mN von Frey filament was applied to the plantar surface of both hind paws. A positive response was defined as lifting, shaking, guarding, or licking paws when the stimulus was applied. For each paw, the filament was applied 5 times at 30-sec intervals.
# Mice were placed individually in Acrylic cubicles mounted on a glass surface maintained at 30° C. The test was performed after acclimatization. The thermal stimulus of the radiant heat was then applied to the plantar surface of each hind paw. Each mouse was tested in three sequential trials with an interval of 2-3 min. The assay cutoff was set at 30 sec to prevent tissue damage. Paw withdrawal latencies were calculated as the mean of three measures.
# Muscle withdrawal thresholds were evaluated as described^46. […]
# Analgesic drugs: Pregabalin (0.3, 1, 3 or 10 mg/kg bodyweight, i.p.; Toronto Research Chemicals), morphine (0.3, 1, 3 or 10 mg/kg bodyweight, i.p.), diclofenac (1, 3 or 10 mg/kg bodyweight, i.p.; Sigma-Aldrich) or vehicle (0.9% saline) was administered, and the effect of each drug was evaluated by testing 6 mice. […]
# [2] = tested on: mice with repeated LPC16:0 injection; experiment: Repeated LPC16:0 injection model, drug effects by von Frey test; assay type: in vivo; conditions: for analgesic effect in repeated LPC16:0 injection model (von Frey): intraperitoneal administration, FIG. 10E
# Method: (§2) The chronic pain model was based on the repeated acid injection model protocol by Sluka et al.^44, and LPC16:0 was used for pain induction to replace acidic saline injection. Mice received in the left gastrocnemius muscle two intramuscular injections (1 day apart) of 10 μL neutral saline solution (pH 7.4; buffered with HEPES) containing vehicle (0.96% ethanol) or LPC16:0 (4.8 nmol; Avanti Polar Lipids Inc)^30. In the experiment of pharmacological inhibition of ASIC3, APETx2 (50 pmole; Alomone, Israel), a selective ASIC3 antagonist, was co-injected with LPC16:0.
# as §1
# Analgesic drugs: Pregabalin (0.3, 1, 3 or 10 mg/kg bodyweight, i.p.; Toronto Research Chemicals), morphine (0.3, 1, 3 or 10 mg/kg bodyweight, i.p.), diclofenac (1, 3 or 10 mg/kg bodyweight, i.p.; Sigma-Aldrich) or vehicle (0.9% saline) was administered, and the effect of each drug was evaluated by testing 6 mice. Sensory testing was carried out at 30 min and 1, 3 and 24 hours after injection of vehicle or drugs, with the experimenter blinded to the dose of test drugs. […] The 3Rs stand for Replace, Reduce, Refine and represent a responsible approach to animal testing. The goal is to replace animal experiments whenever possible. In addition, the aim is to keep the number of animal experiments as low as possible and to only use the necessary number of animals. Lastly, it is vital to ensure that the distress inflicted upon the animals is as low as possible. Therefore, all the pharmacological studies were conducted on post-RISS day 1 and day 4 (3 days apart, within 1 week after RISS). Mice of post-stress day 1 and day 4 were assigned randomly but equally to each tested dosage for counterbalance. During testing, the experimenter was blind to the individual treatment assignments.
# Intrathecal injection was conducted through transcutaneous injection with a 30-gauge needle at the L5-6 dorsal spinal process under anesthesia of isoflurane (1.5%).
# [3] = tested on: WT mice; experiment: LPC16:0 / lipid injection in wild-type mice, mechanical hypersensitivity by von Frey test; assay type: in vivo; conditions: for long-lasting hyperalgesia / priming-like effect after repeated intramuscular injection: two i.m. injections, 4.8 nmol, 10C
# [4] = tested on: pERK; experiment: pERK expression of L4 DRG neurons after intramuscular LPC16:0 injection; assay type: in vivo, mice
# Method: as §2
# Immunofluorescence staining. Animals were euthanized with urethane ([…], i.p.) and perfused with 4% paraformaldehyde (PFA) at P0. L4 dorsal root ganglia (DRG) were extracted and immediately post-fixed in 4% PFA for 60 min, and then replaced with 30% sucrose overnight. DRG were embedded in OCT compound and sectioned (12 μm) with a Leica cryostat. […] Images were acquired and quantified under a Carl Zeiss fluorescence microscope with a 10× objective lens. All images from the same experiment were acquired with the same settings, including fluorescence intensity, acquisition time, and image resolution. The immunoreactivity of pERK and the overlap between pERK and neuron markers (SP, CGRP, IB4 or N52) were assessed using Fiji (ImageJ, NIH) software, with the experimenter blinded to treatment and/or genotype. […]
Molecule,"analgesic effect on RISS-induced hyperalgesia (mechanical, muscle, thermal) [1]",analgesic effect in repeated LPC16:0 injection model (von Frey) [2],long-lasting hyperalgesia / priming-like effect after repeated intramuscular injection ([3]; FIG. 3J),further results
CC(C)C[C@H](CN)CC(=O)O [pregabalin],dose-dependently reversed hyperalgesia,responded,,
CN1CC[C@]23c4c5ccc(O)c4O[C@H]2[C@@H](O)C=C[C@H]3[C@H]1C5 [morphine],no significant analgesic effects,not,,
N#CC(=C(/N)Sc1ccccc1N)/C(C#N)=C(\N)Sc1ccccc1N [U0126],,,,"LPC16:0-induced acute hyperalgesia ([2]; mouse, in vivo): prevented; chronic hyperalgesia induced by the second LPC16:0 injection ([2]; mouse, in vivo): impeded the development of chronic hyperalgesia"
O=C(O)Cc1ccccc1Nc1c(Cl)cccc1Cl [diclofenac],no significant analgesic effects,not,,
CCCCCCCCCCCCC/C=C/[C@@H](O)[C@H](COP(=O)([O-])OCC[N+](C)(C)C)NC(=O)CCCCCCCCCCCCCCCCC [SM(d18:1/18:0)],,,not observed,
CCCCCCCCCCCCCCCCCC(=O)OC[C@@H](O)COP(=O)([O-])OCC[N+](C)(C)C [LPC18:0],,,not observed,
APETx2,,,,"LPC16:0 injection-induced pERK expression in DRG neurons ([4]; APETx2 co-injected with LPC16:0, FIG. 10F, 10G): reduced; chronic hypersensitivity after repeated LPC16:0 injection ([2]; APETx2 50 pmole co-injected i.m. with LPC16:0, FIG. 3K left): significantly reduced; transient (acute) hyperalgesia after LPC16:0 injection ([2]; APETx2 co-injected i.m. with LPC16:0, vs vehicle, FIG. 3K left): transient hyperalgesia was observed"
"CCCCCCCCCCCCCCCC(=O)OC[C@@H](O)COP(=O)([O-])OCC[N+](C)(C)C [LPC16:0, lysophosphatidylcholine (LPC) 16:0]",,,induced long-lasting hyperalgesic changes,"pERK expression in L4 DRG neurons after LPC injection vs vehicle ([4]; i.m. injection, FIG. 10A, 10B): increased; hyperalgesic responses after intramuscular injection, dose dependence ([3]; 4.8, 1.6 and 0.48 nmol i.m., FIG. 3I): dose-dependently evoked hyperalgesic responses; hyperalgesia after single intramuscular injection ([3]; single i.m. injection, FIG. 3J): induced transient bilateral hyperalgesia; hyperalgesia after repeated intraplantar injection ([3]; two intraplantar injections, 4.8 nmole, FIG. 3J right): only induced transient hyperalgesia"
